Reference: the NIST ThermoML archive (doi:10.1016/j.jct.2007.08.004)
Values joined by “and” are separate entries in the source; they are usually repeats but may differ in a detail not shown here. Equal entries are not always repeated. Numbers after ± are expanded uncertainties.

How the values were obtained:
[1] = for vapor or sublimation pressure: Calculated from knudsen effusion weight loss; for Triple point temperature: DTA
[2] = molar heat capacity at constant pressure; details: 101.33 kPa, Small sample (50 mg) DSC
[3] = Molar enthalpy of transition or fusion; details: DSC

O=C1NCCN1 [2-imidazolidinone]
Details | molar heat capacity at constant pressure [J/K/mol] | vapor or sublimation pressure
[1], 327.2 K, Crystal 2 | – | 0.0001064 ± 2e-05 kPa and 0.0001074 ± 2e-05 kPa and 0.0001035 ± 2e-05 kPa
[1], 329.21 K, Crystal 2 | – | 0.0001364 ± 2.1e-05 kPa and 0.0001328 ± 2.1e-05 kPa and 0.0001305 ± 2.1e-05 kPa
[1], 331.14 K, Crystal 2 | – | 0.0001664 ± 2.1e-05 kPa and 0.0001631 ± 2.1e-05 kPa and 0.0001658 ± 2.1e-05 kPa
[1], 333.19 K, Crystal 2 | – | 0.0002142 ± 2.1e-05 kPa and 0.0002049 ± 2.1e-05 kPa and 0.0002095 ± 2.1e-05 kPa
[1], 335.21 K, Crystal 2 | – | 0.0002681 ± 2.2e-05 kPa and 0.0002592 ± 2.2e-05 kPa and 0.0002535 ± 2.2e-05 kPa
[1], 337.15 K, Crystal 2 | – | 0.0003214 ± 2.3e-05 kPa and 0.000301 ± 2.3e-05 kPa and 0.00032 ± 2.3e-05 kPa
[1], 339.2 K, Crystal 2 | – | 0.0003984 ± 2.4e-05 kPa and 0.0003883 ± 2.4e-05 kPa
[1], 341.21 K, Crystal 2 | – | 0.000457 ± 2.6e-05 kPa and 0.0004831 ± 2.6e-05 kPa and 0.0004721 ± 2.6e-05 kPa
[1], 343.14 K, Crystal 2 | – | 0.0005644 ± 2.8e-05 kPa and 0.0005525 ± 2.8e-05 kPa and 0.0005387 ± 2.8e-05 kPa
[1], 345.19 K, Crystal 2 | – | 0.0006621 ± 3.1e-05 kPa and 0.0006672 ± 3.1e-05 kPa and 0.0006399 ± 3e-05 kPa
[1], 347.2 K, Crystal 1 | – | 0.0007833 ± 3.4e-05 kPa and 0.0008114 ± 3.5e-05 kPa and 0.0007693 ± 3.4e-05 kPa
[1], 349.16 K, Crystal 1 | – | 0.0009806 ± 4e-05 kPa and 0.0009769 ± 4e-05 kPa and 0.0009472 ± 3.9e-05 kPa
[2], 268.15 K, Crystal 2 | 99.4 ± 2 | –
[2], 270.15 K, Crystal 2 | 100 ± 2 | –
[2], 275.15 K, Crystal 2 | 101.5 ± 2 | –
[2], 280.15 K, Crystal 2 | 102.7 ± 2.1 | –
[2], 285.15 K, Crystal 2 | 103.9 ± 2.1 | –
[2], 290.15 K, Crystal 2 | 105.1 ± 2.1 | –
[2], 295.15 K, Crystal 2 | 106.3 ± 2.1 | –
[2], 298.15 K, Crystal 2 | 107.7 ± 2.2 | –
[2], 300.15 K, Crystal 2 | 108.5 ± 2.2 | –
[2], 305.15 K, Crystal 2 | 110.2 ± 2.2 | –
[2], 310.15 K, Crystal 2 | 111.9 ± 2.2 | –
[2], 315.15 K, Crystal 2 | 113.2 ± 2.3 | –
[2], 320.15 K, Crystal 2 | 115.4 ± 2.3 | –
[2], 325.15 K, Crystal 2 | 117.3 ± 2.3 | –
[2], 330.15 K, Crystal 2 | 119 ± 2.4 | –
[2], 335.15 K, Crystal 2 | 120.9 ± 2.4 | –
[2], 338.15 K, Crystal 2 | 122.1 ± 2.4 | –

Details | Molar enthalpy of transition or fusion, [3] [kcal/mol] | Triple point temperature, [1] [K]
Crystal 1 | 3.15 ± 0.0956 | 404.8 ± 0.5
Crystal 2 | 0.908 ± 0.0717 | 346.6 ± 0.7

O=C1NCCCN1 [tetrahydropyrimidin-2(1H)-one]
Crystal
Details | molar heat capacity at constant pressure [J/K/mol] | vapor or sublimation pressure
[1], 363.19 K | – | 0.0001292 ± 2.1e-05 kPa and 0.0001261 ± 2.1e-05 kPa and 0.0001216 ± 2.1e-05 kPa
[1], 365.18 K | – | 0.0001581 ± 2.1e-05 kPa and 0.0001562 ± 2.1e-05 kPa and 0.0001488 ± 2.1e-05 kPa
[1], 367.14 K | – | 0.0001903 ± 2.1e-05 kPa and 0.0001913 ± 2.1e-05 kPa and 0.0001858 ± 2.1e-05 kPa
[1], 369.19 K | – | 0.0002232 ± 2.2e-05 kPa and 0.0002283 ± 2.2e-05 kPa
[1], 371.17 K | – | 0.000271 ± 2.2e-05 kPa and 0.0002737 ± 2.2e-05 kPa and 0.0002643 ± 2.2e-05 kPa
[1], 373.15 K | – | 0.0003343 ± 2.3e-05 kPa and 0.0003328 ± 2.3e-05 kPa
[1], 375.18 K | – | 0.0003988 ± 2.4e-05 kPa and 0.000402 ± 2.5e-05 kPa
[1], 377.18 K | – | 0.0004813 ± 2.6e-05 kPa and 0.0004804 ± 2.6e-05 kPa and 0.0004655 ± 2.6e-05 kPa
[1], 379.16 K | – | 0.0005717 ± 2.9e-05 kPa and 0.0005887 ± 2.9e-05 kPa and 0.0005753 ± 2.9e-05 kPa
[1], 381.18 K | – | 0.000719 ± 3.2e-05 kPa and 0.000702 ± 3.2e-05 kPa and 0.000673 ± 3.1e-05 kPa
[1], 383.18 K | – | 0.0008587 ± 3.6e-05 kPa and 0.0008463 ± 3.6e-05 kPa
[1], 385.16 K | – | 0.001027 ± 8e-05 kPa and 0.0009846 ± 4e-05 kPa
[2], 268.15 K | 117.2 ± 2.3 | –
[2], 270.15 K | 118 ± 2.4 | –
[2], 275.15 K | 120.1 ± 2.4 | –
[2], 280.15 K | 122.2 ± 2.4 | –
[2], 285.15 K | 124.1 ± 2.5 | –
[2], 290.15 K | 126.2 ± 2.5 | –
[2], 295.15 K | 128.1 ± 2.6 | –
[2], 298.15 K | 129.5 ± 2.6 | –
[2], 300.15 K | 130.4 ± 2.6 | –
[2], 305.15 K | 132.7 ± 2.7 | –
[2], 310.15 K | 135.3 ± 2.7 | –
[2], 315.15 K | 137.8 ± 2.8 | –
[2], 320.15 K | 140.2 ± 2.8 | –
[2], 325.15 K | 142.6 ± 2.9 | –
[2], 330.15 K | 145.1 ± 2.9 | –
[2], 335.15 K | 147.3 ± 2.9 | –
[2], 340.15 K | 150.1 ± 3 | –
[2], 345.15 K | 152.2 ± 3 | –
[2], 350.15 K | 155.1 ± 3.1 | –
[2], 355.15 K | 157.2 ± 3.1 | –
[2], 360.15 K | 159.9 ± 3.2 | –
[2], 365.15 K | 163.8 ± 3.3 | –
[2], 370.15 K | 166.5 ± 3.3 | –
[2], 375.15 K | 169.8 ± 3.4 | –
[2], 380.15 K | 172.4 ± 3.4 | –
[2], 385.15 K | 175.1 ± 3.5 | –
[2], 390.15 K | 177.3 ± 3.5 | –
[2], 395.15 K | 180.4 ± 3.6 | –
[2], 400.15 K | 183.3 ± 3.7 | –
[2], 405.15 K | 186.5 ± 3.7 | –
[2], 410.15 K | 189.8 ± 3.8 | –
[2], 415.15 K | 193.9 ± 3.9 | –
[2], 420.15 K | 197.1 ± 3.9 | –
[2], 425.15 K | 200.8 ± 4 | –
[2], 430.15 K | 202.7 ± 4.1 | –
[2], 435.15 K | 204.9 ± 4.1 | –
[2], 440.15 K | 207.5 ± 4.2 | –
[2], 445.15 K | 210.3 ± 4.2 | –
[2], 450.15 K | 213.3 ± 4.3 | –
[2], 455.15 K | 215.9 ± 4.3 | –
[2], 460.15 K | 219.1 ± 4.4 | –
[2], 465.15 K | 222.2 ± 4.4 | –
[2], 470.15 K | 224.9 ± 4.5 | –
